# Source: PubChem BioAssay AID652002 (Sanford-Burnham Center for Chemical Genomics, 2013)
# The source made the active and inactive calls. How the calls were made is not given here.
# Tests used:
# [1] = TRAIL sensitizers in caspase-8 expressing neuroblastoma cells, dose response, NB7 cells plus caspase-8, luminescence, panel (AID 652002); conditions: NB7 neuroblastoma +caspase-8, no TRAIL, compound-alone cytotoxicity counter-screen, luminescence viability, NB7+Caspase-8
# [2] = target: NB7+Caspase-8; experiment: as above; conditions: NB7 neuroblastoma +caspase-8, TRAIL sensitization, luminescence viability, with TRAIL
# [3] = target: Tumor necrosis factor receptor superfamily member 10B (Homo sapiens) (UniProt O14763); experiment: as above; conditions: NB7 neuroblastoma +caspase-8, TRAIL sensitization, luminescence viability; NB7+Caspase-8; with TRAIL, mean of runs
# Tumor necrosis factor receptor superfamily member 10B (Homo sapiens), sequence (O14763 whole entry, looked up): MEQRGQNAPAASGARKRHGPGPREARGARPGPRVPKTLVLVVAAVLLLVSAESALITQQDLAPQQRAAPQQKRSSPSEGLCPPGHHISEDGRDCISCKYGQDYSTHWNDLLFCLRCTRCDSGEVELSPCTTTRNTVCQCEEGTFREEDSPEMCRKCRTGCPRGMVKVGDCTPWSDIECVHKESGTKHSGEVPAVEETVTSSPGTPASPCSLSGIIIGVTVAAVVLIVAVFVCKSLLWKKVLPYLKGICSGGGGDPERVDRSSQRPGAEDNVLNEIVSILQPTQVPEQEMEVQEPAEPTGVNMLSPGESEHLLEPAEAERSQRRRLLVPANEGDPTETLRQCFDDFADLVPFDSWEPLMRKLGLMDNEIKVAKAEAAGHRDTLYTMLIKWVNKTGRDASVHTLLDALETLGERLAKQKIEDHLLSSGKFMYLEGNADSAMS
# [4] = run 1, single replicate panel EC50
# [5] = run 2, single replicate panel EC50
SMILES,EC50 ([1]; mean of runs),"EC50 [1, 4] [µM]","EC50 [1, 5] [µM]","EC50 [2, 4] [µM]","EC50 [2, 5] [µM]",EC50 [3]
Clc1nc(Cl)c2ncn(-c3ccccc3)c2n1,> 12.5 µM (inactive),> 12.5,> 12.5,> 12.5,> 12.5,> 12.5 µM (inactive)
COc1cccc(N/C=C/C(=O)c2ccc(Cl)cc2)c1,inactive,10.4,10.3,> 12.5,11.1,inactive
COc1ccc(-c2cc(C(=O)N/N=C/c3cccnc3)c3ccccc3n2)cc1,inactive,11.3,> 12.5,> 12.5,> 12.5,> 12.5 µM (inactive)
O=C1c2ccc(Cl)cc2S(=O)(=O)c2cccc(C(=O)N3CCC(Cc4ccccc4)CC3)c21,> 12.5 µM (inactive),> 12.5,> 12.5,> 12.5,> 12.5,> 12.5 µM (inactive)
CCOC(=O)c1cccc(-[n+]2c(-c3ccccc3)cc(-c3ccccc3)cc2-c2ccccc2)c1,> 12.5 µM (inactive),> 12.5,> 12.5,> 12.5,> 12.5,> 12.5 µM (inactive)
CCOC(=O)[C@]12Cc3cc4ccccc4cc3[C@H]1N(Cc1ccccc1)C(=O)c1cc(OC)ccc12,> 12.5 µM (inactive),> 12.5,> 12.5,> 12.5,> 12.5,> 12.5 µM (inactive)
COc1cc(NC(=O)c2[nH]cnc2C(N)=O)cc(C(=O)Nc2cccc(C(F)(F)F)c2)c1,inactive,> 12.5,10.4,> 12.5,8.91,inactive
CC(C)Cc1nc2oc3c(Cl)ncnc3c2c2c1CCCC2,> 12.5 µM (inactive),> 12.5,> 12.5,> 12.5,> 12.5,> 12.5 µM (inactive)
Cc1onc(-c2c(Cl)cccc2Cl)c1C(=O)ONC(=O)c1ccccc1,> 12.5 µM (inactive),> 12.5,> 12.5,> 12.5,> 12.5,> 12.5 µM (inactive)
NNC(=O)C1CCCn2c1nc1sc3c(c1c2=O)CCCC3 (stereo not given),> 12.5 µM (inactive),> 12.5,> 12.5,> 12.5,> 12.5,> 12.5 µM (inactive)
CC(C)C(=O)Nc1ccc(NC(=O)c2ccccn2)cn1,inactive,> 12.5,11.6,> 12.5,9.78,inactive
O=c1[nH]c(N/N=C\c2ccc3c(c2)OCO3)nc2ccccc12,inactive,> 12.5,10.9,> 12.5,10.1,inactive
CN(C)CCCN(C(=O)c1ccc(C(=O)c2ccccc2)cc1)c1nc2ccc(F)cc2s1,> 12.5 µM (inactive),> 12.5,> 12.5,> 12.5,> 12.5,> 12.5 µM (inactive)
COc1cccc(C(=O)Nc2ccc(C3CC3(Cl)Cl)cc2)c1 (stereo not given),> 12.5 µM (inactive),> 12.5,> 12.5,> 12.5,> 12.5,> 12.5 µM (inactive)
CC(C)C[C@H](NC(=O)c1nc[nH]c1C(=O)N[C@@H](CCCCNC(=O)OC(C)(C)C)C(=O)OC(C)(C)C)C(=O)OCc1ccccc1,> 12.5 µM (inactive),> 12.5,> 12.5,> 12.5,> 12.5,> 12.5 µM (inactive)
COCCNc1c(-c2cc3ccc(C)c(C)c3[nH]c2=O)nc2ccccn12,inactive,> 12.5,6.1,8.39,4.64,inactive
Cc1cc(-c2ccccc2)nc(Nc2nc3c(C)cccc3c(=O)[nH]2)n1,> 12.5 µM (inactive),> 12.5,> 12.5,> 12.5,> 12.5,> 12.5 µM (inactive)
O=C(NC(=S)Nc1nc2c(s1)CCCC2)c1ccccc1,> 12.5 µM (inactive),> 12.5,> 12.5,7.43,> 12.5,inactive
COc1ccc(-c2nc(-c3ccc(NC(=O)c4ccncc4)cc3)no2)cc1OC,> 12.5 µM (inactive),> 12.5,> 12.5,> 12.5,> 12.5,> 12.5 µM (inactive)
CN(C)c1ccc(N/C=C/C(=O)c2ccco2)cc1,inactive,7.62,> 12.5,7.78,6.42,inactive

SMILES,EC50 ([1]; mean of runs),"EC50 [1, 4] [µM]","EC50 [1, 5] [µM]","EC50 [2, 4] [µM]","EC50 [2, 5] [µM]",EC50 [3]
Cc1cc(NC(=O)C2CCCC2)nc2c1c(=O)oc1ccccc12,> 12.5 µM (inactive),> 12.5,> 12.5,> 12.5,> 12.5,> 12.5 µM (inactive)
CC1(Cc2ccc(OC(F)(F)F)cc2)C(=O)Nc2ccc(S(=O)(=O)NC3CCCCC3)cc21 (stereo not given),inactive,> 12.5,12.3,> 12.5,> 12.5,> 12.5 µM (inactive)
Cc1ccc(NC(=O)c2ccccc2O)cc1,inactive,11.1,7.77,> 12.5,10.5,inactive
COc1ccc2sc(-c3ccc(S(C)(=O)=O)cc3)c(C#Cc3cncn3C)c2c1,> 12.5 µM (inactive),> 12.5,> 12.5,> 12.5,> 12.5,> 12.5 µM (inactive)
Cc1ccc(N=C/C(C(=O)C(F)(F)F)=C(\O)c2cccs2)cc1,inactive,> 12.5,1.87,6.11,4,inactive
O=C(Nc1ccc(C(=O)O)cc1)/C(=C\C=C\c1ccccc1)NC(=O)c1ccccc1Cl,inactive,7.94,> 12.5,> 12.5,3.5,inactive
O=C(c1cnc(Cl)c(Cl)c1)N1CCN(S(=O)(=O)c2ccc3ccccc3c2)CC1,> 12.5 µM (inactive),> 12.5,> 12.5,> 12.5,> 12.5,> 12.5 µM (inactive)
O=C(NNC(=O)c1cc(OCC(F)(F)F)ccc1OCC(F)(F)F)c1ccc(Cl)c(Cl)c1,> 12.5 µM (inactive),> 12.5,> 12.5,> 12.5,> 12.5,> 12.5 µM (inactive)
CCN(CC)c1ccc(NC(=O)Nc2ccccc2)cc1,inactive,> 12.5,10.9,> 12.5,8.27,inactive
Cn1nnc(NC(=O)c2ccc(C(C)(C)C)cc2)n1,inactive,> 12.5,5.83,> 12.5,5.01,inactive
CCOc1ccc(-c2cc(C(=O)N3CCC(C)CC3)c3ccccc3n2)cc1,> 12.5 µM (inactive),> 12.5,> 12.5,> 12.5,11.5,inactive
C/C(=N\NC(=O)c1csc(C)c1C)c1ccco1,> 12.5 µM (inactive),> 12.5,> 12.5,> 12.5,> 12.5,> 12.5 µM (inactive)
CCCCC1CCC(C(=O)N(CCC(C)C)c2c(N)n(CCCC)c(=O)[nH]c2=O)CC1 (stereo not given),> 12.5 µM (inactive),> 12.5,> 12.5,> 12.5,> 12.5,> 12.5 µM (inactive)
Cc1nc2cc(NC(=O)c3ccco3)ccc2n1C,inactive,> 12.5,11.5,> 12.5,> 12.5,> 12.5 µM (inactive)
C(=C\c1ccco1)/c1nc2ccccc2[nH]1,> 12.5 µM (inactive),> 12.5,> 12.5,> 12.5,> 12.5,> 12.5 µM (inactive)
O=C(Nc1ccc2c(c1)OCO2)c1ccc2c(c1)OCO2,inactive,6.92,11.2,> 12.5,5.17,inactive
CCCCCCc1cc2cc(S(=O)(=O)c3ccc(F)c(Cl)c3)c(=O)oc2cc1O,> 12.5 µM (inactive),> 12.5,> 12.5,> 12.5,> 12.5,> 12.5 µM (inactive)
COc1ccc(/C(C)=N/Nc2nncc3ccccc23)cc1,> 12.5 µM (inactive),> 12.5,> 12.5,7.33,> 12.5,inactive
Cc1cc2nc3ccc(N(C)C)cc3nc2cc1N,> 12.5 µM (inactive),> 12.5,> 12.5,> 12.5,10.9,inactive
COc1cccc(NC(=O)c2ccc3c(c2)OCO3)c1,inactive,8.96,11.9,7.39,11,inactive
